Experiments:
Type in all cases: cell-based, human
MDA-MB-231 cells [1] = test: Cell morphology (inverted microscope); settings: MDA-MB-231, 50 μM, 24 h
Experimental: (§1) Exponentially growing MDA-MB-231, MCF-7 or MCF-10A cells were harvested, counted and seeded (1x10^5 cells/mL) and plated on sterile 12-well plates for 24 h. Cells were allowed to grow at 37°C in 5% CO2 overnight and then, treated or not (control) with different concentrations of the complexes (1–4) for 2 and 24 h. Cell morphology was examined under an inverted microscope (Nikon, T5100) with amplification of 100×.
(§2) In this work the cytotoxicity of the complexes was evaluated against the MDA-MB-231, MCF-7 and MCF-10A cells by morphology, clonogenic and MTT assays (Fig 2, Table 1). To investigate the effects on cell morphology, the complexes were incubated with cells at concentrations of 25 and 50 μM for 24 h.

MCF-10A cells [2] = test: Cell morphology (inverted microscope); settings: 50 μM, 24 h
Experimental: as §1, §2

MDA-MB-231 cells [3] = test: MTT cell proliferation assay; settings: 24 h of incubation, read-out: IC50 ±SEM MDA-MB-231
Experimental: (§3) MDA-MB-231 human breast tumor cells and MCF7 human breast tumor cells, obtained from Rio de Janeiro Cell Bank, were maintained at 37°C in 5% CO2 in DMEM medium containing fetal bovine serum (FBS) 10% (Vitrocell). MCF-10A, a non-tumor breast cell line, obtained from Rio de Janeiro Cell Bank, was cultivated in DMEM/F12 medium containing horse serum (HS) 5%, EGF (0.02 mg/mL); hydrocortisone (0.05 mg/mL); cholera toxin (0.001 mg/mL) and insulin (0.01 mg/mL). Both media contained penicillin (100 UI/mL), streptomycin ([…]) and L-glutamine (2 mM).
(§4) Proliferation assays were performed as described earlier. Briefly, cells lines were prepared in a concentration of 1x10^4 cells/100 μL, in complete medium (with 10% FBS), and plated on sterile 96-well plates for 24 h. The culture medium was removed from the wells and a new one, supplemented with 10% FBS and containing different concentrations of (1) [Ru(SO4)(dppb)(bipy)] (2) [Ru(CO3)(dppb)(bipy)], (3), [Ru(C2O4)(dppb)(bipy)], or (4) [Ru(CH3CO2)(dppb)(bipy)]PF6, was added to the wells. Cells were incubated for 24 h under the same conditions as described above. Cell proliferation assay was performed in comparison with untreated control. After incubation, the culture medium of each well was removed and a solution containing MTT (1 mg/mL) was added (100 μL/well). The plates were then kept at 37°C for 4 h and the formed crystals were dissolved in DMSO. The absorbance was read on an ELISA plate reader at a wavelength of 540 nm. […] The selectivity index (SI) was calculated as the ratio IC50 (MCF-10A) / IC50 (MDA-MB-231).
(§5) Each experiment was repeated three times in triplicate and a standard error mean was calculated. Shapiro-Wilk’s test was used to verify data normality. As normal distribution was present, the results were compared statistically with a one-way or two-way analysis of variance (ANOVA). […] The data were analysed and IC50 calculations were made using Hill’s equation in the GraphPad Prism software (version 6.05).

MCF-7 cells = test: MTT cell proliferation assay; settings: 24 h of incubation, read-out: IC50 ±SEM MCF-7
Experimental: as §3, §4, §5

MCF-10A cells [4] = test: MTT cell proliferation assay; settings: 24 h of incubation, read-out: IC50 ±SEM MCF-10A
Experimental: as §3, §4, §5

MDA-MB-231 cells [5] = test: Matrigel transwell invasion assay; settings: 20 μM, 22 h
Experimental: The effect of different concentrations of complex (4) 5, 10 μM and 20 μM on MDA-MB-231 tumor cell invasiveness was determined by the ability to transmigrate through a layer of matrigel in a transwell chamber (BD Biosciences) as described earlier. Wells were rehydrated with the addition of 1mL of warm (37°C) incomplete culture medium for 2 h. MDA-MB-231 cells (0.5 x 10^5/350 μL) were loaded on the top of matrigel in a DMEM incomplete medium. DMEM medium supplemented with 10% FBS was placed on the bottom chamber of the transwell units. Twenty-two hours later, cells that remained in the upper chamber were removed using a cotton swab and invasive cells were fixed with methanol and stained with 1% toluidine blue. The invaded cells were quantified by manual counting and inhibition ratio was expressed as % of control.

MDA-MB-231 cells [6] = test: DAPI staining for nuclear fragmentation; settings: 60 and 70 μM, 3 h
Experimental: The apoptotic activity of the complex (4) was analyzed by DAPI staining and flow cytometry with PE-Annexin-V Apoptosis Detection Kit (BD Biosciences). For DAPI staining, MDA-MB-231 cells (2.0 x 10^4/100 μL) were seeded in 96-wells plates and maintained at 37°C in a humidified incubator with 5% CO2 for 24 h. In the next day, cells were treated with 60 and 70 μM of complex (4) and incubated for 3 h. Next, cells were washed with PBS, fixed with methanol and stained with DAPI 1 μg/mL (Life Technologies, Carlsbad, CA) in DMEM medium without FBS for 10 min. Fluorescence was captured in automated microscope ImageXpress® Micro XLS System (Molecular Devices).

MDA-MB-231 cells [7] = test: Cell adhesion to ECM proteins
Experimental: The effects of complex (4) on the adhesion of MDA-MB-231 cells were analyzed in 96-well plates (Corning) as described earlier. Vitronectin (1.0 μg), laminin (0.3 μg) or fibronectin (0.3 μg) immobilized on the plates in a cell adhesion buffer (20 mM HEPES, 150 mM NaCl, 5 mM KCl, 1 mM MgSO4 and 1 mM MnCl2 pH 7.35), overnight at 4°C. Collagen type I (10 μg) was dissolved in acetic acid (0.1%) and coated on the wells. On the next day, wells were blocked with adhesion buffer containing 1% BSA solution for 1h and then washed with 100 μL per well of adhesion buffer. Cells (5 x 10^4/100 μL) were incubated for 30 min with different concentrations of the complex (4) at 37°C 5% CO2 and then plated and incubated under the same conditions for a further 1h. Then the non-adhered cells were gently removed by washing and attached cells were fixed with 100 μL 70% ethanol for 10 min. Cells were stained with 0.5% crystal violet for 20min and the excess dye was removed by washing with PBS. The stained cells were diluted in 100 μL of 1% solution of sodium dodecyl sulfate (SDS) for 30min and reading of the plates was performed on ELISA reader at 595 nm wavelength.

With `CC(=O)[O-].F[P-](F)(F)(F)(F)F.[Ru+2].c1ccc(-c2ccccn2)nc1.c1ccc(P(CCCCP(c2ccccc2)c2ccccc2)c2ccccc2)cc1` [Complex (4), [Ru(CH3CO2)(dppb)(bipy)]PF6] the “effect on cell morphology” value (MDA-MB-231 cells [1]) was “profoundly altered their morphology”, the “effect on cell morphology / cell density” value (MCF-10A cells [2]) was “profoundly altered their morphology” and the IC50 (MDA-MB-231 cells [3]) was 31.16 ± 0.04 µM. The IC50 (MCF-7 cells) was over 200 µM, the IC50 (MCF-10A cells [4]) was 48.89 ± 0.09 µM and the “inhibition of invasion compared to control” value (MDA-MB-231 cells [5]) was “approximately 80%”. For the same compound, the “apoptotic nuclei (DAPI)” value (MDA-MB-231 cells [6]) was “more apoptotic nucleic”, the “inhibition of cell adhesion to type I collagen” value (MDA-MB-231 cells [7]; 20 μM) was “approximately 35%” and the “inhibition of cell adhesion to fibronectin, laminin and vitronectin” value (MDA-MB-231 cells [7]; 40 μM) was “about 65%”. For the same compound, the “inhibition of cell adhesion to type I collagen” value (MDA-MB-231 cells [7]; 40 μM) was about 50% and the “effect on cell adhesion to fibronectin, laminin and vitronectin” value (MDA-MB-231 cells [7]; all concentrations tested) was “inhibited cell adhesion”.
